# Activity calls are given as the source filed them. No rule for the calls is given here.
# Test system: GENE-TOX genotoxicity assays, various organisms and cells
# Assay: GENE-TOX mutagenicity studies
# Conditions: for call: Assay Type: In vivo carcinogenicity studies
# [1] = Species/Cell Type: Fischer rat embryo (RLV/1706) cells, Assay Type: Cell transformation, viral enhanced, Assay Code: CTR+, Evaluation Type: Evaluation A (Pre-1980)
# [2] = Species/Cell Type: Nonhuman, Assay Code: CCGT, Evaluation Type: Evaluation A (Pre-1980)
# [3] = Species/Cell Type: Salmonella typhimurium (one or more of the five standard strains: TA98, TA100, TA1535, TA1537, and TA1538), Assay Type: Histidine reverse gene mutation, Ames assay, Assay Code: SAL-, Evaluation Type: Evaluation A (Pre-1980)
# [4] = Species/Cell Type: Salmonella typhimurium, Assay Type: Forward and reverse gene mutation, host-mediated assay, Assay Code: HMA-, Evaluation Type: Evaluation A (Pre-1980)
# [5] = Species/Cell Type: Syrian hamster embryo (SHE) cells, Assay Type: Cell transformation, clonal assay, Assay Code: CTC-, Evaluation Type: Evaluation A (Pre-1980)
# [6] = Species/Cell Type: Escherichia coli WP2 UVRA, Assay Type: Tryptophan reverse gene mutation, Assay Code: WPU+D, Dose Response: With dose response, Evaluation Type: Evaluation A (Pre-1980)
# [7] = Species/Cell Type: Allium cepa, Assay Type: Chromosome aberrations, Assay Code: ALC+, Evaluation Type: Evaluation A (Pre-1980)
# [8] = Species/Cell Type: Salmonella typhimurium (one or more of the five standard strains: TA98, TA100, TA1535, TA1537, and TA1538), Assay Type: Histidine reverse gene mutation, Ames assay, Assay Code: SALT, Evaluation Type: Evaluation A (Pre-1980)
# [9] = Species/Cell Type: Nonhuman, Assay Code: CCG+, Evaluation Type: Evaluation A (Pre-1980)
# [10] = Species/Cell Type: Bacillus subtilis (H17 vs M45), Assay Type: Rec-assay, spot test, DNA effects (bacterial DNA repair), Assay Code: REWT, Evaluation Type: Evaluation A (Pre-1980)
# [11] = Species/Cell Type: Drosophila melanogaster, Assay Type: Sex-linked recessive lethal gene mutation, Assay Code: SRL-, Evaluation Type: Evaluation A (Pre-1980)
# [12] = Species/Cell Type: Escherichia coli WP2 UVRA, Assay Type: Tryptophan reverse gene mutation, Assay Code: WPU-*, Activation: With metabolic activation, Evaluation Type: Evaluation A (Pre-1980)
# [13] = Species/Cell Type: Escherichia coli polA (W3119 vs P3478), Assay Type: Rec-assay, DNA effects (bacterial DNA repair), Assay Code: RE1T, Evaluation Type: Evaluation A (Pre-1980)
# [14] = Species/Cell Type: Human diploid fibroblasts, Assay Type: Unscheduled DNA synthesis (UDS) in vitro, DNA effects, Assay Code: UDH-, Evaluation Type: Evaluation A (Pre-1980)
# [15] = Species/Cell Type: Nonhuman, Assay Code: CCG+L, Evaluation Type: Evaluation A (Pre-1980)
# [16] = Species/Cell Type: Saccharomyces cerevisiae, Assay Type: Reverse gene mutation, Assay Code: YERT, Evaluation Type: Evaluation A (Pre-1980)
# [17] = Species/Cell Type: Saccharomyces cerevisiae, Assay Type: Mitotic recombination or gene conversion, Assay Code: YEH-, Evaluation Type: Evaluation A (Pre-1980)
# [18] = Species/Cell Type: Neurospora crassa, Assay Type: Forward gene mutation, Assay Code: NEF+, Evaluation Type: Evaluation A (Pre-1980)
# [19] = Species/Cell Type: Salmonella typhimurium (one or more of the five standard strains: TA98, TA100, TA1535, TA1537, and TA1538), Assay Type: Histidine reverse gene mutation, Ames assay, Assay Code: SAL+*, Activation: With metabolic activation, Evaluation Type: Evaluation A (Pre-1980)
structure (smiles),measurement,setting,value
Oc1cccc2cc3cccc(O)c3c(O)c12,mutagenic call,"Species/Cell Type: Escherichia coli polA (W3119 vs P3478), Assay Type: Rec-assay, DNA effects (bacterial DNA repair), Assay Code: RE1+, Evaluation Type: Evaluation A (Pre-1980)",active; positive
same,mutagenic call,[1],active; positive
same,mutagenic call,"Species/Cell Type: Mammalian polychromatic erythrocytes, Assay Type: Micronucleus test, chromosome aberrations, Assay Code: MNT-, Evaluation Type: Evaluation B (Post-1980)",inactive; negative
same,mutagenic call,"Species/Cell Type: Mouse (BALB/c-3T3) cells, Assay Type: Cell transformation, Assay Code: CTB-, Evaluation Type: Evaluation A (Pre-1980)",inactive; negative
same,call,[2],no conclusion
same,mutagenic call,[3],inactive; negative
same,mutagenic call,[4],inactive; negative
same,mutagenic call,[5],inactive; negative
N#CCC(=O)N/N=C/c1c[n+]([O-])c2ccccc2[n+]1[O-],mutagenic call,"Species/Cell Type: Mammalian polychromatic erythrocytes, Assay Type: Micronucleus test, chromosome aberrations, Assay Code: MNT+, Evaluation Type: Evaluation B (Post-1980)",active; positive
CCN(CC)CCCNC(=O)C(=O)N/N=C/c1ccc([N+](=O)[O-])o1,mutagenic call,[6],active; positive
O=C(OCC1=CCN2CC[C@@H](OC(=O)c3ccc(Cl)cc3)[C@@H]12)c1ccc(Cl)cc1,mutagenic call,[7],active; positive
Clc1cccc(C2CO2)c1 (centres undefined),mutagenic call,[6],active; positive
same,mutagenic call,[8],no conclusion
O=[N+]([O-])c1cccc2ccccc12,call,"Species/Cell Type: Nonhuman, Assay Code: CCG-, Evaluation Type: Evaluation A (Pre-1980)",inactive; negative
Cc1ccc2nc3sc(=O)sc3nc2c1,mutagenic call,"Species/Cell Type: Saccharomyces cerevisiae, Assay Type: Mitotic recombination or gene conversion, Assay Code: YEC-, Evaluation Type: Evaluation A (Pre-1980)",inactive; negative
O=c1[nH]c(=O)n([C@H]2C[C@H](O)[C@@H](CO)O2)cc1/C=C/Cl,mutagenic call,"Species/Cell Type: Human, Assay Type: Sister-chromatid exchange (SCE) in vitro, Assay Code: SC1+D, Dose Response: With dose response, Evaluation Type: Evaluation B (Post-1980)",active; positive
C/C=C/c1ccc2c(c1)OCO2,call,[9],active; positive
COc1cccc(OC)c1C(=O)N[C@@H]1C(=O)N2[C@@H]1SC(C)(C)[C@@H]2C(=O)O,mutagenic call,"Species/Cell Type: Escherichia coli polA (W3119 vs P3478), Assay Type: Rec-assay, DNA effects (bacterial DNA repair), Assay Code: RE1-, Evaluation Type: Evaluation A (Pre-1980)",inactive; negative
CCCN(CCC)c1c([N+](=O)[O-])cc(C(F)(F)F)cc1[N+](=O)[O-],mutagenic call,[10],no conclusion
same,mutagenic call,[11],inactive; negative
same,mutagenic call,[12],inactive; negative
same,mutagenic call,[13],no conclusion
same,mutagenic call,[14],inactive; negative
same,mutagenic call,"Species/Cell Type: Neurospora crassa, Assay Type: Aneuploidy, chromosome aberrations, Assay Code: NEN+, Evaluation Type: Evaluation A (Pre-1980)",active; positive
same,call,[15],active; positive
same,mutagenic call,"Species/Cell Type: Nonhuman, Assay Type: Sister-chromatid exchange (SCE) in vitro, Assay Code: SC2+, Evaluation Type: Evaluation B (Post-1980)",active; positive
same,mutagenic call,"Species/Cell Type: Saccharomyces cerevisiae, Assay Type: Mitotic recombination or gene conversion, Assay Code: YEH+/-*, Activation: With metabolic activation, Evaluation Type: Evaluation A (Pre-1980)","inactive; positive without activation, negative with activation"
same,mutagenic call,[3],inactive; negative
same,mutagenic call,"Species/Cell Type: Vicia faba, Assay Type: Chromosome aberrations, Assay Code: VIC+, Evaluation Type: Evaluation A (Pre-1980)",active; positive
COC(=O)COc1ccc(Br)cc1CSC(=N)N,mutagenic call,[16],no conclusion
COc1cc(S(=O)(=O)O)c(C)cc1N=Nc1c(O)ccc2cc(S(=O)(=O)O)ccc12,mutagenic call,[11],inactive; negative
same,mutagenic call,[3],inactive; negative
CNC(=O)Oc1cccc2c1OC(C)(C)C2,mutagenic call,[10],no conclusion
same,mutagenic call,[11],inactive; negative
same,mutagenic call,[12],inactive; negative
same,mutagenic call,[13],no conclusion
same,mutagenic call,"Species/Cell Type: Hordeum vulgare (barley), Assay Type: Chromosome aberrations, Assay Code: HOC+D, Dose Response: With dose response, Evaluation Type: Evaluation A (Pre-1980)",active; positive
same,mutagenic call,[14],inactive; negative
same,mutagenic call,[17],inactive; negative
same,mutagenic call,[3],inactive; negative
O[C@@H]1C=Cc2cc3ccc4ccccc4c3cc2[C@H]1O,mutagenic call,"Species/Cell Type: Nonhuman, Assay Type: Sister-chromatid exchange (SCE) in vitro, Assay Code: SC2+D, Dose Response: With dose response, Evaluation Type: Evaluation B (Post-1980)",active; positive
same,mutagenic call,[8],no conclusion
CCCCOc1ccc(CC(=O)OC)cc1CSC(=N)N,mutagenic call,[16],no conclusion
CCN(CC)CCn1nc2c3c(c(C)ccc31)Sc1cc(Cl)ccc1-2,mutagenic call,[11],inactive; negative
same,mutagenic call,"Species/Cell Type: Mouse lymphoma (L5178Y) cells, Assay Type: Forward gene mutation at the thymidine kinase (TK) locus, chromosome aberrations, Assay Code: L51+, Evaluation Type: Evaluation A (Pre-1980)",active; positive
same,mutagenic call,[18],active; positive
same,mutagenic call,[19],active; positive
C(CC1CO1)C1CO1 (centres undefined),mutagenic call,[18],active; positive
same,call,[15],active; positive
same,mutagenic call,"Species/Cell Type: Schizosaccharomyces pombe, Assay Type: Reverse gene mutation, Assay Code: YEZ+, Evaluation Type: Evaluation A (Pre-1980)",active; positive
c1ccc2c(c1)Cc1c(c3ccccc3c3ccccc13)C2,mutagenic call,[19],active; positive
C/C=C1/C[C@@H](C)[C@](O)(CO)C(=O)OCC2=CCN3CC[C@@H](OC1=O)[C@@H]23,mutagenic call,"Species/Cell Type: Drosophila melanogaster, Assay Type: Sex-linked recessive lethal gene mutation, Assay Code: SRL+, Evaluation Type: Evaluation A (Pre-1980)",active; positive
same,mutagenic call,[19],active; positive
CN(C)CCC=C1c2ccccc2C=Cc2ccccc21,mutagenic call,[8],no conclusion
O=C1c2ccccc2-c2ccc(Oc3ccc(S(=O)(=O)O)cc3)c3cccc1c23,mutagenic call,"Species/Cell Type: Salmonella typhimurium (one or more of the five standard strains: TA98, TA100, TA1535, TA1537, and TA1538), Assay Type: Histidine reverse gene mutation, Ames assay, Assay Code: SAL+, Evaluation Type: Evaluation A (Pre-1980)",active; positive
CCNC(=S)NCC,call,[15],active; positive
same,mutagenic call,"Species/Cell Type: Syrian hamster embryo (SA7/SHE) cells, Assay Type: Cell transformation, viral enhanced, Assay Code: CT7-, Evaluation Type: Evaluation A (Pre-1980)",inactive; negative
C[C@@H]1CCCCN1N=O,call,[9],active; positive
O=[N+]([O-])c1ccc(O)c([N+](=O)[O-])c1,mutagenic call,[7],active; positive
same,mutagenic call,"Species/Cell Type: Arabidopsis species, Assay Type: Gene mutation, Assay Code: ARM-, Evaluation Type: Evaluation A (Pre-1980)",inactive; negative
CNc1nc2c(c(=O)n(C)c(=O)n2C)n1C,mutagenic call,[7],active; positive
CC(=O)Nc1cccc2c1-c1ccccc1C2,mutagenic call,"Species/Cell Type: Escherichia coli polA (W3110 vs P3478), Assay Type: Rec-assay, DNA effects (bacterial DNA repair), Assay Code: RE2-, Evaluation Type: Evaluation A (Pre-1980)",inactive; negative
same,mutagenic call,[13],no conclusion
same,mutagenic call,[1],active; positive
same,mutagenic call,"Species/Cell Type: Mammalian polychromatic erythrocytes, Assay Type: Micronucleus test, chromosome aberrations, Assay Code: MNTT, Evaluation Type: Evaluation A (Pre-1980)",no conclusion
same,mutagenic call,"Species/Cell Type: Mouse (BALB/c-3T3) cells, Assay Type: Cell transformation, Assay Code: CTB+D, Dose Response: With dose response, Evaluation Type: Evaluation A (Pre-1980)",active; positive
same,mutagenic call,"Species/Cell Type: Mouse lymphoma (L5178Y) cells, Assay Type: Forward gene mutation at the thymidine kinase (TK) locus, chromosome aberrations, Assay Code: L51+*, Activation: With metabolic activation, Evaluation Type: Evaluation A (Pre-1980)",active; positive
same,call,[2],no conclusion
same,mutagenic call,"Species/Cell Type: Nonhuman, Assay Type: Sister-chromatid exchange (SCE) in vitro, Assay Code: SC2T, Evaluation Type: Evaluation B (Post-1980)",no conclusion
same,mutagenic call,"Species/Cell Type: Rat primary hepatocytes, Assay Type: Unscheduled DNA synthesis (UDS) in vitro, DNA effects, Assay Code: UDP-, Evaluation Type: Evaluation A (Pre-1980)",inactive; negative
same,mutagenic call,[17],inactive; negative
same,mutagenic call,[19],active; positive
same,mutagenic call,[4],inactive; negative
same,mutagenic call,[5],inactive; negative

# Reference: PubChem BioAssay AID1259408 (Genetic Toxicology Data Bank (GENE-TOX), 2018)
